PubChem BioAssay (NCI)
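In this assay, cells in 96-well plates receive the compound at five concentrations for 48 hours. Endpoints are linearly interpolated between the surrounding concentrations. Abbreviation: GI50, concentration required for 50% inhibition of growth. TGI marks complete inhibition of growth.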

Assays:
Test in all cases: growth of human tumour cells (NCI), 48 h
[1] = tested on: UACC-257 melanoma
[2] = tested on: OVCAR-5 ovarian
[3] = tested on: UO-31 renal
[4] = tested on: HS 578T breast
[5] = tested on: NCI-H23 lung
[6] = tested on: SR leukemia
[7] = tested on: HCT-116 colon
[8] = tested on: SNB-75 CNS
[9] = tested on: A549 NSCLC
[10] = tested on: UACC-62 melanoma
[11] = tested on: SF-295 CNS
[12] = tested on: SK-OV-3 ovarian
[13] = tested on: SF-539 CNS
[14] = tested on: HOP-62 NSCLC
[15] = tested on: RPMI-8226 leukemia
[16] = tested on: TK-10 renal
[17] = tested on: NCI-H460 lung
[18] = tested on: NCI-H226 lung
[19] = tested on: SK-MEL-2 melanoma
[20] = tested on: COLO 205 colon
[21] = tested on: BT-549 breast
[22] = tested on: PC-3 prostate
[23] = tested on: SF-268 CNS
[24] = tested on: SNB-19 CNS
[25] = tested on: DU-145 prostate
[26] = tested on: A498 renal
[27] = tested on: SN12C renal
[28] = tested on: MDA-MB-231 breast
[29] = tested on: CCRF-CEM leukemia
[30] = tested on: HL-60(TB) leukemia
[31] = tested on: U251 CNS
[32] = tested on: SK-MEL-5 melanoma
[33] = tested on: RXF 393 renal
[34] = tested on: OVCAR-4 ovarian
[35] = tested on: LOX IMVI melanoma
[36] = tested on: MALME-3M melanoma
[37] = tested on: T-47D breast
[38] = tested on: HCC-2998 colon
[39] = tested on: K-562 leukemia
[40] = tested on: MCF7 breast
[41] = tested on: ACHN renal
[42] = tested on: SW-620 colon
[43] = tested on: CAKI-1 renal
[44] = tested on: SK-MEL-28 melanoma
[45] = tested on: NCI/ADR-RES ovarian
[46] = tested on: OVCAR-3 ovarian
[47] = tested on: EKVX NSCLC
[48] = tested on: IGROV1 ovarian
[49] = tested on: 786-0 renal
[50] = tested on: MDA-MB-435
[51] = tested on: NCI-H522 lung
[52] = tested on: M14 melanoma
[53] = tested on: HCT-15 colon
[54] = tested on: MOLT-4 leukemia
[55] = tested on: HT29 colon
[56] = tested on: KM12 colon
[57] = tested on: HOP-92 NSCLC
[58] = tested on: OVCAR-8 ovarian

O=C(Nc1ccc(Br)cc1)Nc1nc2ccc([N+](=O)[O-])cc2s1
GI50 [1]: 1430 nM | TGI [1]: 4.11 µM | GI50 [2]: 2080 nM | TGI [2]: 5.07 µM | GI50 [3]: 1490 nM | TGI [3]: 4.74 µM | GI50 [4]: 1470 nM | TGI [4]: 3.99 µM | GI50 [5]: 0.926 µM | TGI [5]: 2.5 µM | GI50 [6]: 474 nM | TGI [6]: 2.28 µM | GI50 [7]: 875 nM | TGI [7]: 2.37 µM | GI50 [8]: 1070 nM | TGI [8]: 3 µM | GI50 [9]: 1860 nM | TGI [9]: 6.9 µM | GI50 [10]: 1070 nM | TGI [10]: 3.6 µM | GI50 [11]: 1270 nM | TGI [11]: 2.95 µM | GI50 [12]: 1590 nM | TGI [12]: 6.75 µM | GI50 [13]: 1310 nM | TGI [13]: 3.08 µM | GI50 [14]: 1880 nM | TGI [14]: 5.04 µM | GI50 [15]: 425 nM | TGI [15]: 1700 nM | GI50 [16]: 1.89 µM | TGI [16]: 4.75 µM | GI50 [17]: 1280 nM | TGI [17]: 3.08 µM | GI50 [18]: 1.44 µM | TGI [18]: 3.09 µM | GI50 [19]: 1260 nM | TGI [19]: 3 µM | GI50 [20]: 1640 nM | TGI [20]: 3.15 µM | GI50 [21]: 1.52 µM | TGI [21]: 3.27 µM | GI50 [22]: 542 nM | TGI [22]: 2080 nM | GI50 [23]: 1.69 µM | TGI [23]: 5.44 µM | GI50 [24]: 1180 nM | TGI [24]: 4.07 µM | GI50 [25]: 1.73 µM | TGI [25]: 4.68 µM | GI50 [26]: 192 nM | TGI [26]: 0.785 µM | GI50 [27]: 1530 nM | TGI [27]: 4.65 µM | GI50 [28]: 1470 nM | TGI [28]: 3.5 µM | GI50 [29]: 377 nM | TGI [29]: 2.74 µM | GI50 [30]: 1020 nM | TGI [30]: 2.75 µM | GI50 [31]: 1200 nM | TGI [31]: 4.26 µM | GI50 [32]: 696 nM | TGI [32]: 2.03 µM | GI50 [33]: 862 nM | TGI [33]: 2410 nM | GI50 [34]: 1.13 µM | TGI [34]: 3.82 µM | GI50 [35]: 1340 nM | TGI [35]: 2.67 µM | GI50 [36]: 792 nM | TGI [36]: 3.49 µM | GI50 [37]: 573 nM | TGI [37]: 3.38 µM

CCNCc1c(-c2cccc(OC(F)(F)F)c2)[nH]c2ccc(N3CCCC3)cc2c1=O
GI50 [38]: 1880 nM | TGI [38]: 3.58 µM | GI50 [39]: 3400 nM | TGI [39]: > 100 µM | GI50 [1]: 2350 nM | TGI [1]: 6.08 µM | GI50 [2]: 3810 nM | TGI [2]: 43.5 µM | GI50 [40]: 2570 nM | TGI [40]: 11.2 µM | GI50 [3]: 3720 nM | TGI [3]: > 100 µM | GI50 [4]: 1940 nM | TGI [4]: 6.48 µM | GI50 [41]: 6.73 µM | TGI [41]: > 100 µM | GI50 [42]: 3.17 µM | TGI [42]: 13.7 µM | GI50 [5]: 3.15 µM | TGI [5]: 10.7 µM | GI50 [43]: 3540 nM | TGI [43]: 17.6 µM | GI50 [6]: 2710 nM | TGI [6]: 12.4 µM | GI50 [7]: 3460 nM | TGI [7]: 35.4 µM | GI50 [8]: 1420 nM | TGI [8]: 8.65 µM | GI50 [44]: 2250 nM | TGI [44]: 5.51 µM | GI50 [9]: 5810 nM | TGI [9]: > 100 µM | GI50 [10]: 3470 nM | TGI [10]: 14.3 µM | GI50 [11]: 1970 nM | TGI [11]: 4.06 µM | GI50 [12]: 7190 nM | TGI [12]: > 100 µM | GI50 [13]: 2240 nM | TGI [13]: 5.85 µM | GI50 [45]: 2480 nM | TGI [45]: 7 µM | GI50 [14]: 5630 nM | TGI [14]: 73.8 µM | GI50 [46]: 3.45 µM | TGI [46]: 20.3 µM | GI50 [15]: 2440 nM | TGI [15]: 6850 nM | GI50 [16]: 24.7 µM | TGI [16]: > 100 µM | GI50 [17]: 3720 nM | TGI [17]: 16.2 µM | GI50 [18]: 9.29 µM | TGI [18]: > 100 µM | GI50 [19]: 3730 nM | TGI [19]: 17.2 µM | GI50 [20]: 2360 nM | TGI [20]: 5.74 µM | GI50 [21]: 4.84 µM | TGI [21]: 44.6 µM | GI50 [22]: 3870 nM | TGI [22]: > 100000 nM | GI50 [47]: 12.3 µM | TGI [47]: > 100 µM | GI50 [48]: 3.54 µM | TGI [48]: > 100 µM | GI50 [23]: 6.44 µM | TGI [23]: 69.2 µM | GI50 [24]: 4030 nM | TGI [24]: > 100 µM | GI50 [25]: 3.8 µM | TGI [25]: > 100 µM | GI50 [49]: 3840 nM | TGI [49]: 20.6 µM | GI50 [50]: 1950 nM | TGI [50]: 4.32 µM | GI50 [27]: 4120 nM | TGI [27]: 46.4 µM | GI50 [28]: 2690 nM | TGI [28]: 9.28 µM | GI50 [51]: 3.98 µM | TGI [51]: 23.1 µM | GI50 [29]: 3520 nM | TGI [29]: > 100 µM | GI50 [30]: 2860 nM | TGI [30]: 9.69 µM | GI50 [52]: 1950 nM | TGI [52]: 4.28 µM | GI50 [31]: 3230 nM | TGI [31]: 14.8 µM | GI50 [32]: 2090 nM | TGI [32]: 4.42 µM | GI50 [33]: 2390 nM | TGI [33]: 7610 nM | GI50 [53]: 3.47 µM | TGI [53]: 15.9 µM | GI50 [34]: 7.77 µM | TGI [34]: > 100 µM | GI50 [35]: 3310 nM | TGI [35]: 12.5 µM | GI50 [54]: 3.88 µM | TGI [54]: 37.3 µM | GI50 [36]: 1990 nM | TGI [36]: 4.41 µM | GI50 [37]: 4780 nM | TGI [37]: 59.3 µM | GI50 [55]: 3.53 µM | TGI [55]: > 100 µM | GI50 [56]: 3.54 µM | TGI [56]: 20.7 µM | GI50 [57]: 4.19 µM | TGI [57]: 38.4 µM | GI50 [58]: 5.22 µM | TGI [58]: > 100 µM

C#C[C@]1(O)CC[C@H]2[C@@H]3CC=C4c5sc(Nc6nc(C)cc(OC)n6)nc5CC[C@]4(C)[C@H]3CC[C@@]21C
GI50 [39]: 528 nM | TGI [39]: > 100 µM | GI50 [1]: 1740 nM | TGI [1]: 4.82 µM | GI50 [40]: 1410 nM | TGI [40]: > 100 µM | GI50 [3]: 575 nM | TGI [3]: 3.18 µM | GI50 [4]: 323 nM | TGI [4]: 2.19 µM | GI50 [41]: 1.19 µM | TGI [41]: > 100 µM | GI50 [5]: 3.93 µM | TGI [5]: > 100 µM | GI50 [43]: 1550 nM | TGI [43]: > 100 µM | GI50 [7]: 1240 nM | TGI [7]: > 100 µM | GI50 [8]: 864 nM | TGI [8]: 84.8 µM | GI50 [9]: 2970 nM | TGI [9]: > 100 µM | GI50 [10]: 540 nM | TGI [10]: 2.73 µM | GI50 [12]: 1550 nM | TGI [12]: 9.13 µM | GI50 [13]: 264 nM | TGI [13]: 1.43 µM | GI50 [14]: 2010 nM | TGI [14]: 35.2 µM | GI50 [15]: 239 nM | TGI [15]: 899 nM | GI50 [16]: 14.9 µM | TGI [16]: > 100 µM | GI50 [17]: 1820 nM | TGI [17]: > 100 µM | GI50 [18]: > 100 µM | TGI [18]: > 100 µM | GI50 [21]: 4.5 µM | TGI [21]: 79.9 µM | GI50 [47]: 2.39 µM | TGI [47]: > 100 µM | GI50 [48]: 3.44 µM | TGI [48]: > 100 µM | GI50 [23]: 5.47 µM | TGI [23]: > 100 µM | GI50 [24]: 986 nM | TGI [24]: > 100 µM | GI50 [25]: 3.25 µM | TGI [25]: > 100 µM | GI50 [49]: 379 nM | TGI [49]: 2.28 µM | GI50 [50]: 2350 nM | TGI [50]: > 100 µM | GI50 [26]: 1510 nM | TGI [26]: 5.93 µM | GI50 [51]: 3.02 µM | TGI [51]: > 100 µM | GI50 [29]: 1210 nM | TGI [29]: > 100 µM | GI50 [30]: 531 nM | TGI [30]: 5.38 µM | GI50 [31]: 575 nM | TGI [31]: 73.1 µM | GI50 [33]: 161 nM | TGI [33]: 497 nM | GI50 [37]: 2570 nM | TGI [37]: > 100 µM | GI50 [56]: 3.16 µM | TGI [56]: > 100 µM | GI50 [57]: 2.65 µM | TGI [57]: 7.69 µM | GI50 [58]: 4.16 µM | TGI [58]: > 100 µM
